Results taken from the supplement of paper PMC5908809.

Key:
[1] = system: normal NK cells expanded with K562-aAPC; assay: drug sensitivity score (DSS) (DSS units); higher = more sensitive; extreme values may be limits of the assay; details: 72 h; IL-2 2.5 ng/mL
Method: (§1)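 Drug sensitivity and resistance testing on K562-aAPC-expanded normal NK cells: 5 concentrations (10-fold steps over a 10,000-fold range), 72 h at 37 °C, viability by CellTiter-Glo normalised to DMSO and benzethonium chloride controls; DSS from the fitted curve.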

[2] = system: normal primary NK cells, pool 1 (3 donors), resting (IL-2 0 ng/mL); assay: percent inhibition of viability; higher = more inhibition; details: 72 h
DERL-7 (IL-2 2.5 ng/mL) [3] = assay: as above; details: 72 h
[4] = system: normal primary NK cells, pool 3 (3 donors) (IL-2 2.5 ng/mL); assay: as above; details: 72 h
[5] = system: normal primary NK cells, pool 2 (3 donors) (IL-2 2.5 ng/mL); assay: as above; details: 72 h
NKL (IL-2 2.5 ng/mL) [6] = assay: as above; details: 72 h
KHYG-1 (IL-2 2.5 ng/mL) [7] = assay: as above; details: 72 h
[8] = system: normal primary NK cells, pool 1 (3 donors) (IL-2 2.5 ng/mL); assay: as above; details: 72 h
IMC-1 (IL-2 20 ng/mL) [9] = assay: as above; details: 72 h
YT (IL-2 2.5 ng/mL) [10] = assay: as above; details: 72 h
SNK-6 (IL-2 2.5 ng/mL) [11] = assay: as above; details: 72 h
NK-YS (IL-2 2.5 ng/mL) [12] = assay: as above; details: 72 h
KAI3 (IL-2 2.5 ng/mL) [13] = assay: as above; details: 72 h
NK-92 (IL-2 2.5 ng/mL) [14] = assay: as above; details: 72 h
[15] = system: normal primary NK cells, pool 1 (3 donors), resting (IL-2 0 ng/mL); assay: drug sensitivity score (DSS) (DSS units); higher = more sensitive; extreme values may be limits of the assay; details: 72 h
DERL-7 (IL-2 2.5 ng/mL) [16] = assay: as above; details: 72 h
[17] = system: normal primary NK cells, pool 3 (3 donors) (IL-2 2.5 ng/mL); assay: as above; details: 72 h
[18] = system: normal primary NK cells, pool 2 (3 donors) (IL-2 2.5 ng/mL); assay: as above; details: 72 h
NKL (IL-2 2.5 ng/mL) [19] = assay: as above; details: 72 h
KHYG-1 (IL-2 2.5 ng/mL) [20] = assay: as above; details: 72 h
[21] = system: normal primary NK cells, pool 1 (3 donors) (IL-2 2.5 ng/mL); assay: as above; details: 72 h
IMC-1 (IL-2 20 ng/mL) [22] = assay: as above; details: 72 h
YT (IL-2 2.5 ng/mL) [23] = assay: as above; details: 72 h
SNK-6 (IL-2 2.5 ng/mL) [24] = assay: as above; details: 72 h
NK-YS (IL-2 2.5 ng/mL) [25] = assay: as above; details: 72 h
KAI3 (IL-2 2.5 ng/mL) [26] = assay: as above; details: 72 h
NK-92 (IL-2 2.5 ng/mL) [27] = assay: as above; details: 72 h
[28] = system: normal NK cells expanded with K562-aAPC; assay: percent inhibition of viability; higher = more inhibition; details: 72 h, IL-2 2.5 ng/mL
Method: as §1

COc1cc2/c(=N/c3ccc(Br)cc3F)nc[nH]c2cc1OCC1CCN(C)CC1 [Vandetanib] (max concentration tested 1000 nM)
Details	drug sensitivity score
DERL-7 (IL-2 2.5 ng/mL) [16]	0
IMC-1 (IL-2 20 ng/mL) [22]	0.22
KAI3 (IL-2 2.5 ng/mL) [26]	0.3
KHYG-1 (IL-2 2.5 ng/mL) [20]	0
NK-92 (IL-2 2.5 ng/mL) [27]	0
NK-YS (IL-2 2.5 ng/mL) [25]	0.03
NKL (IL-2 2.5 ng/mL) [19]	0
SNK-6 (IL-2 2.5 ng/mL) [24]	7.25
YT (IL-2 2.5 ng/mL) [23]	0.08
[1]	2.32
[15]	0
[17]	0
[18]	0.01
[21]	0

percent inhibition of viability [%]
Details	0.1 nM	1 nM	10 nM	100 nM	1000 nM
DERL-7 (IL-2 2.5 ng/mL) [3]	-0.64	-4.35	-15.9	-3.72	3.05
IMC-1 (IL-2 20 ng/mL) [9]	-1	-1.11	2.06	4.13	13.1
KAI3 (IL-2 2.5 ng/mL) [13]	0.12	-3.68	-0.86	-6.05	18.6
KHYG-1 (IL-2 2.5 ng/mL) [7]	-1.45	0.56	5.16	2.56	12.2
NK-92 (IL-2 2.5 ng/mL) [14]	-4.34	-9.89	-2.18	-8.76	7.58
NK-YS (IL-2 2.5 ng/mL) [12]	-3.92	-3.47	0.22	0.66	11.3
NKL (IL-2 2.5 ng/mL) [6]	-13.3	-15.3	-10	2.48	9
SNK-6 (IL-2 2.5 ng/mL) [11]	12.7	14.6	14.3	33.2	24.4
YT (IL-2 2.5 ng/mL) [10]	2.5	1.99	6.02	-0.29	12.9
[2]	7.75	-11.8	-1.4	-19.4	11.2
[4]	-11.4	-7.39	-2.76	-1.3	-0.41
[5]	-2.11	0.59	-1.27	-7.23	12.3
[8]	-5.01	-0.24	-7.43	-15.2	2.01
[28]	-8.6	1.05	-3.45	6.91	29.5

COc1cc2c(Oc3ccc4[nH]c(C)cc4c3F)ncnc2cc1OCCCN1CCCC1 [Cediranib] (max concentration tested 1000 nM)
Details	drug sensitivity score
DERL-7 (IL-2 2.5 ng/mL) [16]	0
IMC-1 (IL-2 20 ng/mL) [22]	1.2
KAI3 (IL-2 2.5 ng/mL) [26]	0
KHYG-1 (IL-2 2.5 ng/mL) [20]	0
NK-92 (IL-2 2.5 ng/mL) [27]	1.88
NK-YS (IL-2 2.5 ng/mL) [25]	0
NKL (IL-2 2.5 ng/mL) [19]	0
SNK-6 (IL-2 2.5 ng/mL) [24]	0
YT (IL-2 2.5 ng/mL) [23]	0
[1]	0.03
[15]	0
[17]	0
[18]	0
[21]	0

percent inhibition of viability [%]
Details	0.1 nM	1 nM	10 nM	100 nM	1000 nM
DERL-7 (IL-2 2.5 ng/mL) [3]	0.36	1.65	5.2	3.45	7.76
IMC-1 (IL-2 20 ng/mL) [9]	-5.84	1.16	-0.8	8.28	17.6
KAI3 (IL-2 2.5 ng/mL) [13]	4.2	-2.39	-4.78	-7.3	2.49
KHYG-1 (IL-2 2.5 ng/mL) [7]	4.26	1.2	0.25	3.56	5.7
NK-92 (IL-2 2.5 ng/mL) [14]	-10.6	3.93	7.82	10.5	25.9
NK-YS (IL-2 2.5 ng/mL) [12]	-2.57	-1.64	-1.64	-2.9	4.62
NKL (IL-2 2.5 ng/mL) [6]	-22.1	-12.6	-8.18	4.3	-2.96
SNK-6 (IL-2 2.5 ng/mL) [11]	-0.01	-5.98	-7.81	1.67	-2.98
YT (IL-2 2.5 ng/mL) [10]	-2.86	-1.1	-1.25	-2.55	7.27
[2]	4.39	-7.82	2.26	-0.33	6.25
[4]	-13.7	-14.2	-5.69	-12.7	-3.19
[5]	-4.71	1.73	4.28	-4.99	7
[8]	4.11	-11.2	-8.24	-9.08	-10.8
[28]	-3.67	-0.35	-1.67	10.2	9.48

N#Cc1ccc(COC[C@H]2O[C@@H](n3c(NCc4ccc(Cl)c(Cl)c4)nc4c(N)ncnc43)[C@H](O)[C@@H]2O)cc1 (max concentration tested 10000 nM)
Details	drug sensitivity score
DERL-7 (IL-2 2.5 ng/mL) [16]	2.63
IMC-1 (IL-2 20 ng/mL) [22]	4.46
KAI3 (IL-2 2.5 ng/mL) [26]	3.83
KHYG-1 (IL-2 2.5 ng/mL) [20]	5.29
NK-92 (IL-2 2.5 ng/mL) [27]	3.57
NK-YS (IL-2 2.5 ng/mL) [25]	6.65
NKL (IL-2 2.5 ng/mL) [19]	0
SNK-6 (IL-2 2.5 ng/mL) [24]	5.74
YT (IL-2 2.5 ng/mL) [23]	5.18
[1]	0.38
[15]	3.54
[17]	0
[18]	0.06
[21]	0.69

percent inhibition of viability [%]
Details	1 nM	10 nM	100 nM	1000 nM	10000 nM
DERL-7 (IL-2 2.5 ng/mL) [3]	4.78	2.63	2.42	7.67	32.1
IMC-1 (IL-2 20 ng/mL) [9]	-1.92	-0.39	-4.01	-16.8	97.2
KAI3 (IL-2 2.5 ng/mL) [13]	1.01	1.02	-1.36	17.5	34.8
KHYG-1 (IL-2 2.5 ng/mL) [7]	-2.11	-1.26	0.87	11.4	62.4
NK-92 (IL-2 2.5 ng/mL) [14]	-0.8	4.51	-4.4	7.42	45.2
NK-YS (IL-2 2.5 ng/mL) [12]	-1.65	1.3	-0.1	21.7	64.4
NKL (IL-2 2.5 ng/mL) [6]	4.1	5.28	-8.68	9.7	9.11
SNK-6 (IL-2 2.5 ng/mL) [11]	5.72	12.3	-10.3	21.8	52.5
YT (IL-2 2.5 ng/mL) [10]	2.07	0.4	-2.55	12.2	59
[2]	-3.74	-9.12	7.84	15.3	41
[4]	-13.6	-13.5	-14	-9.19	-0.46
[5]	-10.6	-2.26	-3.97	-0.12	12.3
[8]	-6.38	-11.1	5.83	5.84	18.5
[28]	-3.56	-7.9	-9.32	1.88	14.8
